# Reference: patent US20220354805A1, “Cannabidiol (CBD) as Chemical for Treating Aging-related Degenerative Diseases and Promoting Health Aging” (Hemix Biotech Limited, priority 2021, published 2022)
# Key:
# [1] = tested on: bone marrow stromal cells of LMNA^G609G/G609G mice; assay: Crystal violet staining colony formation assay of mouse bone marrow stromal cells; assay type: in vivo; details: mice treated with 50 mg/kg CBD, vs LMNA^G609G/G609G control mice and wildtype mice; 12 days of culture
# Protocol: In the step of isolating the mouse bone marrow stromal cells for measurement of the clonogenicity, mice were sacrificed and placed inside tissue culture hood. The femur was dissected out using sterile utensils. The mouse bone marrow stromal cells were flushed out of femur using a 29G needle with 1 mL of ice-cold phosphate buffered saline (PBS). The bone marrow stromal cells collected were centrifuged at 3000 rpm for 5 minutes at 4° C. The supernatant was removed, and the cell pellet was resuspended in Minimum Essential Medium Eagle—alpha modification (α-MEM) supplemented with 20% fetal bovine serum (FBS) and penicillin-streptomycin (100 units/mL). The medium was changed every 3 days. After 12 days of culture, crystal violet staining colony formation assay was carried out. The cells were washed twice with ice-cold PBS. The cells were fixed with ice-cold methanol for 10 minutes. Then the cells were stained with 0.5% crystal violet dissolved in 25% methanol for 10 minutes at room temperature. The crystal violet solution was then removed, and the cells were rinsed with double-distilled water (ddH2O) until the rinse became clear. The plates were dried off, and pictures were taken for analysis.
# [2] = tested on: skin of LMNA^G609G/G609G mice; assay: Histology study of mouse skin (hematoxylin and eosin staining); assay type: in vivo; details: CBD treated LMNA^G609G/G609G mice
# Protocol: In the step of study the histology of mouse skin and liver, the mice were sacrificed by cervical dislocation under anesthesia by intraperitoneal (IP) injection of 100 mg/kg ketamine and 16 mg/kg xylazine in sterile water. Major organs, including skin, muscle, intestine, kidney, spleen, liver, lung, heart, aorta, were collected. Half of the tissues were snap-frozen in liquid nitrogen and stored at −80° C. for extraction of proteins and RNA. Another half of the tissues were fixed in 4% paraformaldehyde (PFA) in PBS and shook at 4° C. overnight. For paraffin wax sections, the fixed tissues were incubated in 70% ethanol and shook at 4° C. overnight. Followed by stepwise dehydration of tissues in 90%, 95%, 100%, and 100% ethanol for 1 hour each. Then the tissues were incubated in 50% xylene and 50% ethanol for 30 to 40 minutes and transferred to 100% xylene for 10 to 15 minutes. The tissues were then incubated in wax for 30 minutes and transferred to new wax for 3 times. Then the tissues were placed in the wax inside a vacuum chamber overnight. On the following day, the tissues were embedded into paraffin blocks and sectioned into slides with 6 μm in thickness. After the tissue sections were dried, they were incubated in xylene solution twice each for 5 minutes. […]
# [3] = tested on: LMNA^G609G/G609G MEFs; assay: RNA sequencing of differentially expressed genes in MEFs; assay type: cell-based, mouse; details: 10 μM CBD, 4 days
# Protocol: Primary mouse embryonic fibroblasts (MEFs) at passage 3 were seeded and cultured in 10-cm dish and treated with CBD for 4 days. The cells were washed twice with ice-cold phosphate buffered saline (PBS), and 1 mL TRIzol was added. After incubation at room temperature for 5 minutes, the samples were collected into Eppendorf tubes. The supernatants were collected to Eppendorf tubes. 200 μl of chloroform was added to each sample, and the tubes were shaken vigorously by hand for 15 seconds. The samples were incubated at room temperature for 5 minutes and then centrifuged at 4° C. at 12000 rcf for 15 minutes. After centrifugation, the solution was separated into 3 layers. 450 μl of the clear top layer was collected, and 500 μl of isopropanol was added. […] The RNA quantitation was done using Nanodrop and Agilent 2100 Bioanalyzer. The RNA integrity was measured using Agilent 2100 Bioanalyzer. The RNA purity was measured using agarose gel electrophoresis and Agilent 2100 Bioanalyzer. […]
# Illumina sequencing system was used for paired-end reads of read lengths PE150. […] The results were validated by quantitative polymerase chain reaction (qPCR). […] The concentration of RNA was measured by nanodrop. […] Then the samples were ready for qPCR. […] The delta-delta-ct value was calculated by the qPCR machine based on the signal of target genes normalized with housekeeping genes.
# [4] = tested on: p21, BCL-w, BCL-xL, MCL-1, TRIB3, p-akt in MSCs; assay: Western blotting in irradiated and non-irradiated MSCs; assay type: cell-based, human; details: 6-hour 10 μM CBD
# Protocol: FIG. 12a-b illustrates the results of senolytic effect of CBD in mesenchymal stem cells (MSCs) upon irradiation induced senescence.
# The relative cell viability was calculated by normalizing each sample to non-irradiated control sample. […] As CBD selectively killed senescent MSCs while keeping proliferating MSCs unharmed, it was discovered to be a novel senolytic. Referring to FIG. 12b, Western blotting was carried to investigate the mechanism behind CBD's senolytic effect. […] While as proliferating and senescent MSCs responded differently in phosphorylated akt level.
smiles,measurement,setting,value
"C=C(C)[C@@H]1CCC(C)=C[C@H]1c1c(O)cc(CCCCC)cc1O [CBD, Cannabidiol]",number of colonies,[1],higher number of colonies
same,decrease of hair follicle density,[2],rescued
same,loss of skin adipose layer,[2],rescued
same,differentially expressed genes restored to normal levels,[3],1066 out of 1363
same,share of differentially expressed genes restored to normal levels,[3],78%
same,BCL-w level,[4]; irradiated MSCs,downregulated
same,BCL-xL level,[4]; irradiated MSCs,downregulated
same,MCL-1 level,[4]; irradiated MSCs,downregulated
same,p21 level,[4]; irradiated MSCs,significantly downregulated
same,TRIB3 expression level (downregulated in senescent MSCs),[4]; irradiated senescent MSCs,rescued
same,p-akt level,[4]; non-irradiated MSCs,significantly upregulated
